# Assay results: US9701670B2, “Pyrazolyl-ureas as kinase inhibitors” (RESPIVERT LIMITED, priority 2013, dated 2017)
# What was measured:
# [1] = biological target: T1, p38 MAPKα isoform (MAPK14) (Homo sapiens (Human), UniProt Q16539); assay: p38 MAPKα enzyme inhibition (FRET, Z-LYTE), Method 1; type: biochemical; details: Method 1 (Table 4a1)
# [2] = biological target: GSK 3α (Homo sapiens (Human), UniProt P49840); assay: GSK 3α enzyme inhibition (FRET, Z-LYTE), Method 2; type: biochemical; details: Method 2, different laboratory (Table 4a2); read-out: IC50 Values for Enzyme Inhibition GSK3α
# GSK 3α, sequence (P49840 whole entry): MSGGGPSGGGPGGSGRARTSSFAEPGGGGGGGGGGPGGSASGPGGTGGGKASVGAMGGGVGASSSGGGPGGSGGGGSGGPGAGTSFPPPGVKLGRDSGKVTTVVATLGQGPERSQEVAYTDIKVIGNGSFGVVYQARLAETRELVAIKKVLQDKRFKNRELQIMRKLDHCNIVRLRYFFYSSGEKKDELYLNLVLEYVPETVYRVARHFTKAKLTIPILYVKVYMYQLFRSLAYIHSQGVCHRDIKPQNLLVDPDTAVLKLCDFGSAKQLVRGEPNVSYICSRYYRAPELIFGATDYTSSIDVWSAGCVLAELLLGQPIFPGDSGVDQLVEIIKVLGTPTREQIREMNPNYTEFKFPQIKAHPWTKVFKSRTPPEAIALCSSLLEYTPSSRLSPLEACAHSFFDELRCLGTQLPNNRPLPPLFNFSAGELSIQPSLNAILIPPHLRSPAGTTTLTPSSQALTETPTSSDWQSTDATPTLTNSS
# Description: (§1) The enzyme inhibitory activities of compounds disclosed herein are determined by FRET using synthetic peptides labelled with both donor and acceptor fluorophores (Z-LYTE, Invitrogen Ltd., Paisley, UK).
# The inhibitory activities of compounds of the invention against the GSK 3α enzyme isoform (Invitrogen), are evaluated by determining the level of activation/phosphorylation of the target peptide. The GSK3-α protein (500 ng/mL, 2.5 μL) is mixed with the test compound (2.5 μL at either 4 μg/mL, 0.4 μg/mL, 0.04 μg/mL, or 0.004 μg/mL) for 2 hr at RT. The FRET peptide (8 μM, 2.5 μL), which is a phosphorylation target for GSK3α, and ATP (40 μM, 2.5 μL) are then added to the enzyme/compound mixture and the resulting mixture incubated for 1 hr. Development reagent (protease, 5 μL) is added for 1 hr prior to detection in a fluorescence microplate reader (Varioskan® Flash, ThermoFisher Scientific).
# (§2) In all cases, the site-specific protease cleaves non-phosphorylated peptide only and eliminates the FRET signal. Phosphorylation levels of each reaction are calculated using the ratio of coumarin emission (donor) over fluorescein emission (acceptor), for which high ratios indicate high phosphorylation and low ratios indicate low phosphorylation levels.
# [3] = system: Differentiated U937 cells; assay: (l) Cell viability: MTT assay; type: cell-based, human; details: 1 μg/mL
# Summary of the method: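 MTT read-out (1 h, absorbance 550 nm) on d-U937 cells after pre-incubation with 1 or 10 μg/mL compound under two regimes: 4 h, 5% FCS, or 24 h, 10% FCS RPMI1640. Values are percent loss of viability relative to vehicle (0.5% DMSO), so increases are reported as negative.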
# [4] = biological target: T1, p38 MAPKα isoform (MAPK14); assay: p38 MAPKα enzyme inhibition (FRET, Z-LYTE), Method 2; type: biochemical; details: Method 2, different laboratory (Table 4a2)
# Description: as §1
# The inhibitory activities of test compounds against the p38 MAPKα isoform (MAPK14: Invitrogen), are evaluated indirectly by determining the level of activation/phosphorylation of the down-stream molecule, MAPKAP-K2. The p38 MAPKα protein (80 ng/mL, 2.5 μL) is mixed with the test compound (2.5 μL of either 4 μg/mL, 0.4 μg/mL, 0.04 μg/mL or 0.004 μg/mL) for 2 hr at RT. […] The mixture is incubated for 1 hr at RT. Development reagent (protease, 5 μL) is added for 1 hr prior to detection in a fluorescence microplate reader (Varioskan® Flash, ThermoFisher Scientific).
# as §2
# T1 sequence (Q16539 whole entry, canonical isoform): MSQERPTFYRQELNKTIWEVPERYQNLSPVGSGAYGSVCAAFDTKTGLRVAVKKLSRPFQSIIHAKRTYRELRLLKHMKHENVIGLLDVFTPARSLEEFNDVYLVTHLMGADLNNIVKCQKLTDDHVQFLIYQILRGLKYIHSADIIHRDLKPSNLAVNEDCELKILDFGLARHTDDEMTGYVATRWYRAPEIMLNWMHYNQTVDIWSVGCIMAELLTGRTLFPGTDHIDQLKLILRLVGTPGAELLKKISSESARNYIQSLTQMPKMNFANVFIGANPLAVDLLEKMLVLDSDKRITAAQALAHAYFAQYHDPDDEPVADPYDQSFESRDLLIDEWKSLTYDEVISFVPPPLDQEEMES
Compound,IC50 [1],IC50 [2],Cell viability at time point in d-U937 cells 4 h [3],Cell viability at time point in d-U937 cells 24 h [3],IC50 [4]
"COc1cc(C(=O)NCCN2CCOCC2)ccc1Nc1nccc(Oc2ccc(NC(=O)Nc3cc(C(C)C)nn3-c3ccc(C)cc3)c3ccccc23)n1 [Example 36, 4-((4-((4-(3-(3-isopropyl-1-(p-tolyl)-1H-pyrazol-5-yl)ureido)naphthalen-1-yl)oxy)pyrimidin-2-yl)amino)-3-methoxy-N-(2-morpholinoethyl)benzamide]",0.013 µM,13.2 µM,"−ve (−ve and +ve indicate that the value is below and above respectively, the no significant effect threshold, defined as 30% inhibition at 1 μg/mL at the time point indicated.)","−ve (−ve and +ve indicate that the value is below and above respectively, the no significant effect threshold, defined as 30% inhibition at 1 μg/mL at the time point indicated.)",–
"CCc1cc(NC(=O)Nc2ccc(Oc3ccnc(Nc4cc(OC)cc(C(=O)NCCN5CCOCC5)c4)n3)c3ccccc23)n(-c2ccc(C)cc2)n1 [Example 49, 3-((4-((4-(3-(3-ethyl-1-(p-tolyl)-1H-pyrazol-5-yl)ureido)naphthalen-1-yl)oxy)pyrimidin-2-yl)amino)-5-methoxy-N-(2-morpholinoethyl)benzamide]",0.002 µM,13.5 µM,"−ve (−ve and +ve indicate that the value is below and above respectively, the no significant effect threshold, defined as 30% inhibition at 1 μg/mL at the time point indicated.)","−ve (−ve and +ve indicate that the value is below and above respectively, the no significant effect threshold, defined as 30% inhibition at 1 μg/mL at the time point indicated.)",–
"COc1cc(Nc2nccc(Oc3ccc(NC(=O)Nc4cc(C5CC5)nn4-c4ccc(C)cc4)c4ccccc34)n2)cc(C(=O)NCCN2CCOCC2)c1 [Example 50, 3-((4-((4-(3-(3-cyclopropyl-1-(p-tolyl)-1H-pyrazol-5-yl)ureido)naphthalen-1-yl)oxy)pyrimidin-2-yl)amino)-5-methoxy-N-(2-morpholinoethyl)benzamide]",0.002 µM,13.3 µM,"−ve (−ve and +ve indicate that the value is below and above respectively, the no significant effect threshold, defined as 30% inhibition at 1 μg/mL at the time point indicated.)","−ve (−ve and +ve indicate that the value is below and above respectively, the no significant effect threshold, defined as 30% inhibition at 1 μg/mL at the time point indicated.)",–
"C#Cc1cc(Nc2nccc(Oc3ccc(NC(=O)Nc4cc(C(F)(F)C(F)(F)F)nn4-c4ccc(C)cc4)c4ccccc34)n2)cc(C(=O)NCCN2CCOCC2)c1 [Example 74, 3-Ethynyl-N-(2-morpholinoethyl)-5-((4-((4-(3-(3-(perfluoroethyl)-1-(p-tolyl)-1H-pyrazol-5-yl)ureido)naphthalen-1-yl)oxy)pyrimidin-2-yl)amino)benzamide]",–,12.1 µM,–,–,1.21 µM
"C#Cc1cc(Nc2nccc(Oc3ccc(NC(=O)Nc4cc(C(C)C)nn4-c4ccc(C)cc4)c(Cl)c3Cl)n2)cc(C(N)=O)c1 [Example 89, 3-((4-(2,3-Dichloro-4-(3-(3-isopropyl-1-(p-tolyl)-1H-pyrazol-5-yl)ureido)-phenoxy)pyrimidin-2-yl)amino)-5-ethynylbenzamide]",–,15.3 µM,–,–,–
